Measurements published in patent US10377770B2 (Novartis AG, priority 2015, dated 2019).

Each molecule was assayed against C-Raf FL (full length CRAF with Y340E and Y341E activating mutations, co-expressed with h14-3-3 zeta) (Homo sapiens (Human), UniProt P04049, Y340E/Y341E) (assay: In vitro Raf activity determination, AlphaScreen p-MEK readout, c-Raf (C-Raf FL)). Details: c-Raf approximately 4 nM, ATP 1 μM, pre-incubation 60 minutes, reaction 1 hour.
Assay type: biochemical
Excerpt: Sf9 cells co-expressing both proteins were lysed and subjected to immobilized nickel chromatography and eluted with Imidazole. A second column (StrepII binding column) was used and eluted with desthiobiotin. Protein Tags were removed using Prescission enzyme and the protein was further purified using a flowthrough step to remove tags.
C-Raf TR refers to a truncated C-Raf protein, a Δ1-324 deletion mutant. C-Raf FL refers to the full-length C-Raf protein.
Full length MEK1 with an inactivating K97R ATP binding site mutation is utilized as a RAF substrate. The MEK1 cDNA was subcloned with an N-terminal (his)6 tag into a vector for E. Coli expression. The MEK1 substrate was purified from E. Coli lysate by nickel affinity chromatography followed by anion exchange. The final MEK1 preparation was biotinylated (Pierce EZ-Link Sulfo-NHS-LC-Biotin) and concentrated.
Assay Materials: Assay buffer is 50 mM Tris, pH 7.5, 15 mM MgCl2, 0.01% Bovine Serum Albumin (BSA) and 1 mM dithiothreitol (DTT); Stop buffer is 60 mM ethylenediaminetetraacetic acid (EDTA) and 0.01% Tween® 20; b-Raf (V600E), active; biotinylated Mek, kinase dead; Alpha Screen detection kit (available from PerkinElmer™, #6760617R); Anti phospho-MEK1/2 (available from Cell Signaling Technology, Inc. #9121); 384 well low volume assay plates (White Greiner® plates).
Assay conditions: b-Raf (V600E) approximately 4 pM; c-Raf approximately 4 nM; biotinylated Mek, kinase dead approximately 10 nM; ATP 10 μM for BRAF (V600E) and 1 μM for CRAF; Pre-incubation time with compounds 60 minutes at room temperature; Reaction time 1 or 3 hours at room temperature.
Assay protocol: Raf and biotinylated Mek (kinase dead) were combined at 2× final concentrations in assay buffer (50 mM Tris, pH 7.5, 15 mM MgCl2, 0.01% BSA and 1 mM DTT) and dispensed […] per well in assay plates (Greiner white 384 well assay plates #781207) containing […] of 40× of a Raf kinase inhibitor test compound diluted in 100% DMSO. The plate was incubated for 60 minutes at room temperature. The Raf kinase activity reaction was started by the addition of […] per well of 2×ATP diluted in assay buffer. After 3 hours (b-Raf(V600E)) or 1 hour (c-Raf). The reactions were stopped and the phosphorylated product was measured using a rabbit anti-p-MEK (Cell Signaling, #9121) antibody and the Alpha Screen IgG (ProteinA) detection Kit (PerkinElmer #6760617R), by the addition of […] to the well of a mixture of the antibody (1:2000 dilution) and detection beads (1:2000 dilution of both beads) in Stop/bead buffer (25 mM EDTA, 50 mM Tris, pH 7.5, 0.01% Tween20). The additions were carried out under dark conditions to protect the detection beads from light. A lid was placed on top of the plate and incubated for 1 hour at room temperature, after which the luminescence was read on a PerkinElmer Envision instrument.

C-Raf FL (full length CRAF with Y340E and Y341E activating mutations, co-expressed with h14-3-3 zeta), sequence (P04049 whole entry Y340E/Y341E): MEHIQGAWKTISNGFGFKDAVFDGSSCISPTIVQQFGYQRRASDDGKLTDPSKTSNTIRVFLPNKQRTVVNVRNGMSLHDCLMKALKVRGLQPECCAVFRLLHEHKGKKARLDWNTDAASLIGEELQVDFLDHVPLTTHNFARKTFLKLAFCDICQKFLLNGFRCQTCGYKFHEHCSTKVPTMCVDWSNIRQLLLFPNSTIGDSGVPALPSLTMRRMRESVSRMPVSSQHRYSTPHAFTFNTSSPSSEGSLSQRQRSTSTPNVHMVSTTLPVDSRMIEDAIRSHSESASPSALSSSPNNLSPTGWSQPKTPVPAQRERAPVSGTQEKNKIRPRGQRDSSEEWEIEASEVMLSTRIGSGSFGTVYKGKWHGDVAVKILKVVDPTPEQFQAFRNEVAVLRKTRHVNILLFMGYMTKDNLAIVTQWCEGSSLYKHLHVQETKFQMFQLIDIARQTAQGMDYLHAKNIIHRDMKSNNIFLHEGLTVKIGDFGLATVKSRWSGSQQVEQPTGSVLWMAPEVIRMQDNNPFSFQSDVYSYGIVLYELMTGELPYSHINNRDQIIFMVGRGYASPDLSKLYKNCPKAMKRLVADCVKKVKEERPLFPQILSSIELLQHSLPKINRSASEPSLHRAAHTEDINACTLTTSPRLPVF
C-Raf FL (full length CRAF with Y340E and Y341E activating mutations, co-expressed with h14-3-3 zeta), sequence (P63104 whole entry partner): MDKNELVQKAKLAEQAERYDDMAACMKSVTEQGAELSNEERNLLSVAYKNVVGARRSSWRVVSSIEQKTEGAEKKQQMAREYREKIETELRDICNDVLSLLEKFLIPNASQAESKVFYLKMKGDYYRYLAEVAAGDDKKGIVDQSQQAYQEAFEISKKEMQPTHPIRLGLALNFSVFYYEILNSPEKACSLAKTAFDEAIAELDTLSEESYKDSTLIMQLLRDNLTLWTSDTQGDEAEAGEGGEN

With `Cc1ccc(NC(=O)c2ccnc(C(F)(F)F)c2)cc1-c1ccc2c(c1)N1CCOC[C@H]1C[C@H]2O` (racemic) [Example 3, (rac)-(trans)-N-(3-(6-hydroxy-1,2,4,4a,5,6-hexahydro-[1,4]oxazino[4,3-a]quinolin-9-yl)-4-methylphenyl)-2-(trifluoromethyl)isonicotinamide] as the molecule, how does the IC50 read?
The IC50 was 0.031 nM.

With `Cc1ccc(NC(=O)c2ccnc(C(C)(F)F)c2)cc1-c1ccc2c(c1)N1CCOCC1CC2O` (racemic) [Example 6, (rac)-2-(1,1-difluoroethyl)-N-(3-(6-hydroxy-1,2,4,4a,5,6-hexahydro-[1,4]oxazino[4,3-a]quinolin-9-yl)-4-methylphenyl)isonicotinamide] as the molecule, how does the IC50 read?
The IC50 was 0.076 nM.

How did the IC50 turn out when `Cc1ccc(NC(=O)c2ccnc(C(C)(C)F)c2)cc1-c1ccc2c(c1)N1CCOCC1CC2O` (racemic) [Example 7, (rac)-2-(2-fluoropropan-2-yl)-N-(3-(6-hydroxy-1,2,4,4a,5,6-hexahydro-[1,4]oxazino[4,3-a]quinolin-9-yl)-4-methylphenyl)isonicotinamide] was run?
The IC50 was 0.033 nM.

How did the IC50 turn out when `Cc1ccc(NC(=O)c2ccnc(C(C)(C)C#N)c2)cc1-c1ccc2c(c1)N1CCOCC1CC2O` (racemic) [Example 8, (rac)-2-(2-cyanopropan-2-yl)-N-(3-(6-hydroxy-1,2,4,4a,5,6-hexahydro-[1,4]oxazino[4,3-a]quinolin-9-yl)-4-methylphenyl)isonicotinamide] was run?
Its IC50 is 0.19 nM.

`Cc1ncc(NC(=O)c2cccc(C(F)(F)F)c2)cc1-c1ccc2c(c1)N1CCOCC1CC2O` (racemic) [Example 9, (rac)-N-(5-(6-hydroxy-1,2,4,4a,5,6-hexahydro-[1,4]oxazino[4,3-a]quinolin-9-yl)-6-methylpyridin-3-yl)-3-(trifluoromethyl)benzamide] was tested. Which IC50 did it give?
Its IC50 is 0.051 nM.

Which IC50 does the source give for `Cc1ccc(NC(=O)c2cnnc(C(F)(F)F)c2)cc1-c1ccc2c(c1)N1CCOCC1CC2O` (racemic) [Example 10, (rac)-N-(3-(6-hydroxy-1,2,4,4a,5,6-hexahydro-[1,4]oxazino[4,3-a]quinolin-9-yl)-4-methylphenyl)-6-(trifluoromethyl)pyridazine-4-carboxamide] here?
The IC50 was 0.036 nM.

`Cc1ncc(NC(=O)c2ccnc(C(C)(F)F)c2)cc1-c1ccc2c(c1)N1CCOCC1CC2O` (racemic) [Example 11, (rac)-2-(1,1-difluoroethyl)-N-(5-(6-hydroxy-1,2,4,4a,5,6-hexahydro-[1,4]oxazino[4,3-a]quinolin-9-yl)-6-methylpyridin-3-yl)isonicotinamide] was tested. Which IC50 did it give?
Its IC50 is 0.0098 nM.

`Cc1ccc(NC(=O)c2ccnc(C(C)(F)F)c2)cc1-c1ccc2c(c1)N1CCOCC1CC2O` (racemic) [Example 16, (rac)-2-(1,1-difluoroethyl)-N-(3-(6-hydroxy-1,2,4,4a,5,6-hexahydro-[1,4]oxazino[4,3-a]quinolin-9-yl)-4-methylphenyl)isonicotinamide] was tested. Which IC50 did it give?
The IC50 was 0.055 nM.

For `Cc1ccc(NC(=O)c2ccnc(C(C)(C)F)c2)cc1-c1ccc2c(c1)N1CCOCC1CC2O` (racemic) [Example 17, (rac)-2-(2-fluoropropan-2-yl)-N-(3-(6-hydroxy-1,2,4,4a,5,6-hexahydro-[1,4]oxazino[4,3-a]quinolin-9-yl)-4-methylphenyl)isonicotinamide], which IC50 is on record?
Its IC50 is 0.046 nM.

For `Cc1ccc(NC(=O)c2ccnc(C(F)(F)F)c2)cc1-c1ccc2c(c1)N1CCOCC1CC2` (racemic) [Example 21, (rac)-N-(3-(1,2,4,4a,5,6-hexahydro-[1,4]oxazino[4,3-a]quinolin-9-yl)-4-methylphenyl)-2-(trifluoromethyl)isonicotinamide], which IC50 is on record?
The IC50 was 0.0012 nM.

With `Cc1ccc(NC(=O)c2ccnc(C(F)(F)F)c2)cc1-c1ccc2c(c1)N1CCOCC1CC2(C)O` (racemic) [Example 22, (rac)-N-(3-(6-hydroxy-6-methyl-1,2,4,4a,5,6-hexahydro-[1,4]oxazino[4,3-a]quinolin-9-yl)-4-methylphenyl)-2-(trifluoromethyl)isonicotinamide] as the molecule, how does the IC50 read?
Its IC50 is 0.23 nM.

For `Cc1ccc(NC(=O)c2ccnc(C(C)(F)F)c2)cc1-c1ccc2c(c1)N1CCOCC1CC2(C)O` (racemic) [Example 23], which IC50 is on record?
Its IC50 is 0.046 nM.

How did the IC50 turn out when `Cc1ccc(NC(=O)c2ccnc(C(C)(F)F)c2)cc1-c1ccc2c(c1)N1CCOC[C@]1(C)C[C@H]2O` (racemic) [Example 27] was run?
The IC50 was 0.017 nM.

With `Cc1ccc(NC(=O)c2ccnc(C(F)(F)F)c2)cc1-c1ccc2c(c1)N1CCOCC1CC2N` (racemic) [Example 28, (rac)-N-(3-(6-amino-1,2,4,4a,5,6-hexahydro-[1,4]oxazino[4,3-a]quinolin-9-yl)-4-methylphenyl)-2-(trifluoromethyl)isonicotinamide] as the molecule, how does the IC50 read?
The IC50 was 0.059 nM.

For `CC(=O)NC1CC2COCCN2c2cc(-c3cc(NC(=O)c4ccnc(C(F)(F)F)c4)ccc3C)ccc21` (racemic) [Example 29, N-(3-(6-acetamido-1,2,4,4a,5,6-hexahydro-[1,4]oxazino[4,3-a]quinolin-9-yl)-4-methylphenyl)-2-(trifluoromethyl)isonicotinamide], which IC50 is on record?
The IC50 was 0.17 nM.

`CO[C@@H]1C[C@@H]2COCCN2c2cc(-c3cc(NC(=O)c4ccnc(C(F)(F)F)c4)ccc3C)ccc21` (racemic) [Example 30, (rac)-(trans)-N-(3-(6-methoxy-1,2,4,4a,5,6-hexahydro-[1,4]oxazino[4,3-a]quinolin-9-yl)-4-methylphenyl)-2-(trifluoromethyl)isonicotinamide] was tested. Which IC50 did it give?
The IC50 was 0.18 nM.

Which IC50 does the source give for `CO[C@@H]1C[C@@H]2COCCN2c2cc(-c3cc(NC(=O)c4ccnc(C(C)(F)F)c4)cnc3C)ccc21` (racemic) [Example 31, (rac)-(trans)-2-(1,1-difluoroethyl)-N-(5-(6-methoxy-1,2,4,4a,5,6-hexahydro-[1,4]oxazino[4,3-a]quinolin-9-yl)-6-methylpyridin-3-yl)isonicotinamide] here?
The IC50 was 0.033 nM.

Which IC50 does the source give for `CO[C@@H]1C[C@@H]2COCCN2c2cc(-c3cc(NC(=O)c4cccc(C(F)(F)F)c4)cnc3C)ccc21` (racemic) [Example 32, (rac)-(trans)-N-(5-(6-methoxy-1,2,4,4a,5,6-hexahydro-[1,4]oxazino[4,3-a]quinolin-9-yl)-6-methylpyridin-3-yl)-3-(trifluoromethyl)benzamide] here?
The IC50 was 0.023 nM.

Which IC50 does the source give for `COC1CC2COCCN2c2cc(-c3cc(NC(=O)c4ccnc(C(F)(F)F)c4)ccc3C)cnc21` (racemic) [Example 34] here?
Its IC50 is 0.0087 nM.

Which IC50 does the source give for `Cc1ccc(NC(=O)c2ccnc(C(F)(F)F)c2)cc1-c1cnc2c(c1)N1CCOC[C@H]1C[C@@H]2O` (racemic) [Example 37, (rac)-(cis)-N-(3-(6-hydroxy-1,2,4,4a,5,6-hexahydro-[1,4]oxazino[4,3-a][1,5]naphthyridin-9-yl)-4-methylphenyl)-2-(trifluoromethyl)isonicotinamide] here?
The IC50 was 0.0081 nM.

`Cc1ncc(NC(=O)c2cccc(C(F)(F)F)c2)cc1-c1cnc2c(c1)N1CCOC[C@H]1C[C@@H]2O` (racemic) [Example 38, (rac)-(cis)-N-(5-(6-hydroxy-1,2,4,4a,5,6-hexahydro-[1,4]oxazino[4,3-a][1,5]naphthyridin-9-yl)-6-methylpyridin-3-yl)-3-(trifluoro-methyl)benzamide] was tested. Which IC50 did it give?
Its IC50 is 0.03 nM.

For `Cc1ccc(NC(=O)c2ccnc(C(F)(F)F)c2)cc1-c1cnc2c(c1)N1CCOC[C@H]1C[C@@]2(C)O` (racemic) [Example 39, (rac)-(trans)-N-(3-(6-hydroxy-6-methyl-1,2,4,4a,5,6-hexahydro-[1,4]oxazino[4,3-a][1,5]naphthyridin-9-yl)-4-methylphenyl)-2-(trifluoromethyl)isonicotinamide], which IC50 is on record?
The IC50 was 0.0023 nM.
